In US20030191279A1, “Urea derivatives useful as anticancer agents” (priority 1999, published 2003):

SMILES	melting point
O=C(NCC(=O)N(Cc1ccccc1)[C@@H]1c2ccccc2CC[C@H]1Cc1ccccc1)Nc1cccc(C(=O)Nc2nnn[nH]2)c1 (relative stereo) [Example 3, trans-3-(3-{[Benzyl-(2-benzyl-1,2,3,4-tetrahydro-naphthalen-1-yl)-carbamoyl]-methyl}-ureido)-N-(1H-tetrazol-5-yl)-benzamide]	155 °C (dec.)
COc1ccccc1CN(C(=O)CNC(=O)Nc1cccc(C(=O)O)c1)[C@@H]1c2ccccc2CC[C@H]1Cc1ccccc1 (relative stereo) [Example 11, trans-3-(3-{[(2-Benzyl-1,2,3,4-tetrahydro-naphthalen-1-yl)-(2-methoxy-benzyl)-carbamoyl]-methyl}-ureido)-benzoic acid]	117 °C
O=C(NCC(=O)N(Cc1cccs1)[C@@H]1c2ccccc2CC[C@H]1Cc1ccccc1)Nc1cccc(C(=O)O)c1 (relative stereo) [Example 13, trans-3-(3-{[(2-Benzyl-1,2,3,4-tetrahydro-naphthalen-1-yl)-thiophen-2-ylmethyl-carbamoyl]-methyl}-ureido)-benzoic acid]	196 to 198 °C
CCN(C(=O)CNC(=O)Nc1cccc(C(=O)O)c1)[C@@H]1c2ccccc2CC[C@H]1Cc1ccccc1 (relative stereo) [Example 16, trans-3-(3-{[(2-Benzyl-1,2,3,4-tetrahydro-naphthalen-1yl)-ethyl-carbamoyl]-methyl}-ureido)-benzoic acid]	130 °C
O=C(NCC(=O)N(Cc1nccs1)[C@@H]1c2ccccc2CC[C@H]1Cc1ccccc1)Nc1cccc(C(=O)O)c1 (relative stereo) [Example 17, trans-3-(3-{[(2-Benzyl-1,2,3,4-tetrahydro-naphthalen-1-yl)-thiazol-2-ylmethyl-carbamoyl]-methyl}-ureido)-benzoic acid]	194 to 195 °C
COc1ccccc1C[C@@H]1CCc2ccccc2[C@H]1N(Cc1ccccc1)C(=O)CNC(=O)Nc1cccc(C(=O)O)c1 (relative stereo) [Example 18, trans-3-[3-({Benzyl-[2-(2-methoxy-benzyl)-1,2,3,4-tetrahydro-naphthalen-1-yl]-carbamoyl}-methyl)-ureido]-benzoic acid]	130 °C

The next lines start with the values.

melting point	SMILES
> 250 °C	O=C(NCC(=O)N(Cc1ccccc1)[C@@H]1c2ccccc2CC[C@H]1Cc1ccccc1)Nc1cccc(C(=O)O)c1 (relative stereo) [Example 1, trans-3-(3-{[Benzyl-(2-benzyl-1,2,3,4-tetrahydro-naphthalen-1-yl)-carbamoyl]-methyl}-ureido)-benzoic acid]
119 °C (dec.)	O=C(NCC(=O)N(Cc1ccccc1)[C@@H]1c2ccccc2CC[C@H]1Cc1ccccc1)c1cccc(-c2nnn[nH]2)c1 (relative stereo) [Example 4, trans-N-{[Benzyl-(2-benzyl-1,2,3,4-tetrahydro-naphthalen-1-yl)-carbamoyl]-methyl}-3-(1H-tetrazol-5-yl)-benzamide]
160 to 162 °C	O=C(NCC(=O)N(Cc1ccccc1)[C@@H]1CCCC[C@H]1Cc1ccccc1)Nc1cccc(C(=O)O)c1 (relative stereo) [Example 14, trans-3-(3-{[Benzyl-(2-benzyl-cyclohexyl)-carbamoyl]-methyl)-ureido)-benzoic Acid]
120 °C	O=C(O)c1cc(C(=O)NCC(=O)N(Cc2ccccc2)[C@@H]2CCCC[C@H]2Cc2ccccc2)ncn1 (relative stereo) [Example 20, trans-6-({[Benzyl-(2-benzyl-cyclohexyl)-carbamoyl]-methyl}-carbamoyl)-pyrimidine-4-carboxylic acid]
